Converted amounts (≈) assume the structure as drawn. The source made the active and inactive calls. The rule behind the calls is not given here.
Key:
[1] = biological target: 11-beta-hydroxysteroid dehydrogenase type 2 (Homo sapiens, UniProt P80365); assay: Inhibition of recombinant 11betaHSD2 using cortisol as substrate after 40 mins by fluorescence spectrophotometry
[2] = Half life in rat at 1 to 3 mg/kg, iv; format: ADME, organism-based; parameters: dose 1-3 mg/kg, route intravenous; conditions: in vivo
[3] = biological target: 11-beta-hydroxysteroid dehydrogenase type 1 (Canis lupus familiaris, UniProt Q5XX84); assay: Inhibition of N-terminal His6-tagged full length dog 11betaHSD1 expressed in baculovirus infected cells using cortisone as substrate after 25 mins by HTRF assay
[4] = Half life in rat at 1 to 3 mg/kg, po; format: ADME, organism-based; parameters: dose 1-3 mg/kg, route oral; conditions: in vivo
[5] = biological target: 11-beta-hydroxysteroid dehydrogenase 1 (Rattus norvegicus, UniProt P16232); assay: Inhibition of N-terminal His6-tagged full length rat 11betaHSD1 expressed in baculovirus infected cells using cortisone as substrate after 25 mins by HTRF assay
[6] = Fraction unbound in dog plasma after 18 to 19 hrs by equilibrium dialysis; format: ADME, cell-free, Canis lupus familiaris
CYP1A2 = CYP1A2 (Homo sapiens, UniProt P05177); assay: Inhibition of CYP1A2 at 10 uM; format: ADME
Liver [7] = assay: Drug uptake in rat liver assessed as covalent binding measured per mg protein at 40 uCi/kg, po at 24 hrs; format: ADME, organism-based; conditions: in vivo
CYP2D6 = CYP2D6 (Homo sapiens, UniProt P10635); assay: Inhibition of CYP2D6 at 10 uM; format: ADME
Chain of CYP2D6 (P10635 whole entry): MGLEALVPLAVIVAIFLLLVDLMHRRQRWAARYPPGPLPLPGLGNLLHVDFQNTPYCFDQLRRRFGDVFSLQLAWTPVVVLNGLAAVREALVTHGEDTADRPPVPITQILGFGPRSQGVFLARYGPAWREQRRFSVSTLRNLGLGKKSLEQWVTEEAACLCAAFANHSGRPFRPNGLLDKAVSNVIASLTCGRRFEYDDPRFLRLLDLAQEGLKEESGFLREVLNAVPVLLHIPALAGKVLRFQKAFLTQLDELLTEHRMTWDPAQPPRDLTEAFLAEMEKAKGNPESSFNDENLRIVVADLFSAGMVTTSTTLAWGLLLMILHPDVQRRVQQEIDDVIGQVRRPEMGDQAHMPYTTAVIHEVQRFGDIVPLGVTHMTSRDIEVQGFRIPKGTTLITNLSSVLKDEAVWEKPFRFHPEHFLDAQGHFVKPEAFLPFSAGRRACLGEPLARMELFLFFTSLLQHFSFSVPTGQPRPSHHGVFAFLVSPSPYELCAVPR

[8] = Octanol-buffer partition coefficient, log D of the compound after 30 mins by shake flask method at pH 7.4; conditions: octanol/buffer
Plasma = assay: Drug uptake in rat plasma assessed as covalent binding measured at 40 uCi/kg, po at 24 hrs; format: ADME, organism-based; conditions: in vivo
Salmonella typhimurium = assay: Mutagenicity against Salmonella typhimurium by Ames test; format: toxicity, organism-based; conditions: salmonella enterica subsp. enterica serovar typhimurium
[9] = Apparent permeability from apical to basal side of MDCK cells at 10 uM; format: ADME, cell-based, Canis lupus familiaris; conditions: dog
Hepatocyte [10] = assay: Metabolic stability in rat hepatocytes assessed as compound remaining; format: ADME, cell-based
Mus musculus [11] = assay: Ex-vivo inhibition of 11betaHSD1 in po dosed C57Bl6J mouse epididymal adipose tissue using [3H]cortisone as substrate after 1 hr by flow scintillation analysis; format: functional, organism-based
L5178Y = assay: Mutagenicity against mouse L5178Y cells by mouse lymphoma assay; format: toxicity, cell-based
[12] = Volume of distribution at steady state in rat at 1 to 3 mg/kg; format: ADME, organism-based; parameters: dose 1-3 mg/kg; conditions: in vivo, read-out: Vdss
Liver [13] = assay: Drug uptake in rat liver assessed as covalent binding measured per mg protein at 40 uCi/kg, po at 2 hrs; format: ADME, organism-based; conditions: in vivo
[14] = Volume of distribution at steady state in dog at 1 to 3 mg/kg; format: ADME, organism-based, Canis lupus familiaris; parameters: dose 1-3 mg/kg; conditions: in vivo, read-out: Vdss
[15] = Fraction unbound in mouse plasma after 18 to 19 hrs by equilibrium dialysis; format: ADME, cell-free
[16] = biological target: 17-beta-hydroxysteroid dehydrogenase type 3 (Homo sapiens, UniProt P37058); assay: Inhibition of recombinant 17betaHSD3 using [3H]androstenedione as substrate after 90 mins by flow scintillation analysis
Chain of 17-beta-hydroxysteroid dehydrogenase type 3 (P37058 whole entry): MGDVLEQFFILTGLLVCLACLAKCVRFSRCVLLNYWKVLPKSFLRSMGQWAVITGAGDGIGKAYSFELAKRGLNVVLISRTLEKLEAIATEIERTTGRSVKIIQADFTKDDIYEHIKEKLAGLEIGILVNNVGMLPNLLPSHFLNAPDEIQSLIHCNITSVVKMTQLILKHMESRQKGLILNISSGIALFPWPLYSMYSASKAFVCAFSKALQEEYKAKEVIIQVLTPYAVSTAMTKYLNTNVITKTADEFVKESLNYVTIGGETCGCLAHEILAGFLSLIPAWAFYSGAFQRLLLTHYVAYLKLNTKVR

[17] = Half life in dog at 1 to 3 mg/kg, iv; format: ADME, organism-based, Canis lupus familiaris; parameters: dose 1-3 mg/kg, route intravenous; conditions: in vivo
[18] = Metabolic stability in dog hepatocytes assessed as compound remaining; format: ADME, cell-based, Canis lupus familiaris, Hepatocyte
CYP3A4 = CYP3A4 (Homo sapiens, UniProt P08684); assay: Inhibition of CYP3A4 at 10 uM; format: ADME
Chain of CYP3A4 (P08684 whole entry): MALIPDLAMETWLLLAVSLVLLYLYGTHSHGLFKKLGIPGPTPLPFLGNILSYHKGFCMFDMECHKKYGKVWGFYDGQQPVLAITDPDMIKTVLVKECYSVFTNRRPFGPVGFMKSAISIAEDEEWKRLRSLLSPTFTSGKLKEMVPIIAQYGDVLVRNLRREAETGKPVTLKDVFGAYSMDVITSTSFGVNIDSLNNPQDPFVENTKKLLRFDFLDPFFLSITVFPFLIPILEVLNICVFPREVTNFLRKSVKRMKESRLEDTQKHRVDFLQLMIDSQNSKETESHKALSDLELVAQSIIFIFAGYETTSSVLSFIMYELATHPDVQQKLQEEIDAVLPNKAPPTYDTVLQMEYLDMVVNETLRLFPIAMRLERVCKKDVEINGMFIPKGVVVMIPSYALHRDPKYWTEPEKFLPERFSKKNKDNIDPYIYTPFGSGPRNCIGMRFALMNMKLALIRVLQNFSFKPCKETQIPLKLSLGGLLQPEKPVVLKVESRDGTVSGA

CYP2C9 = CYP2C9 (Homo sapiens, UniProt P11712); assay: Inhibition of CYP2C9 at 10 uM; format: ADME
[19] = Plasma clearance in mouse at 1 to 3 mg/kg; format: ADME, organism-based; parameters: dose 1-3 mg/kg
[20] = Half life in mouse at 1 to 3 mg/kg, iv; format: ADME, organism-based; parameters: dose 1-3 mg/kg, route intravenous; conditions: in vivo
Mus musculus [21] = assay: Ex-vivo inhibition of 11betaHSD1 in C57Bl6J mouse epididymal adipose tissue using [3H]cortisone as substrate at 1500 mg/kg, po after 1 hr by flow scintillation analysis; format: functional
[22] = Oral bioavailability in rat at 1 to 3 mg/kg; format: ADME, organism-based; conditions: in vivo
Mus musculus [23] = assay: Ex-vivo inhibition of 11betaHSD1 in C57Bl6J mouse epididymal adipose tissue using [3H]cortisone as substrate at 50 mg/kg, po after 1 hr by flow scintillation analysis; format: functional
Hepatocyte [24] = assay: Metabolic stability in human hepatocytes assessed as compound remaining; format: ADME, cell-based
[25] = Oral bioavailability in mouse at 1 to 3 mg/kg; format: ADME, organism-based; conditions: in vivo
[26] = Induction in cytochrome P450 in rat up to 1 month; format: ADME
[27] = biological target: Gastrin/cholecystokinin type B receptor (Homo sapiens) (UniProt P32239); assay: Activity at CCK2 receptor
[28] = Plasma clearance in rat at 1 to 3 mg/kg; format: ADME, organism-based; parameters: dose 1-3 mg/kg
[29] = biological target: Glucocorticoid receptor (Homo sapiens) (UniProt P04150); assay: Activity at glucocorticoid receptor
Chain of Glucocorticoid receptor (Homo sapiens) (P04150 whole entry): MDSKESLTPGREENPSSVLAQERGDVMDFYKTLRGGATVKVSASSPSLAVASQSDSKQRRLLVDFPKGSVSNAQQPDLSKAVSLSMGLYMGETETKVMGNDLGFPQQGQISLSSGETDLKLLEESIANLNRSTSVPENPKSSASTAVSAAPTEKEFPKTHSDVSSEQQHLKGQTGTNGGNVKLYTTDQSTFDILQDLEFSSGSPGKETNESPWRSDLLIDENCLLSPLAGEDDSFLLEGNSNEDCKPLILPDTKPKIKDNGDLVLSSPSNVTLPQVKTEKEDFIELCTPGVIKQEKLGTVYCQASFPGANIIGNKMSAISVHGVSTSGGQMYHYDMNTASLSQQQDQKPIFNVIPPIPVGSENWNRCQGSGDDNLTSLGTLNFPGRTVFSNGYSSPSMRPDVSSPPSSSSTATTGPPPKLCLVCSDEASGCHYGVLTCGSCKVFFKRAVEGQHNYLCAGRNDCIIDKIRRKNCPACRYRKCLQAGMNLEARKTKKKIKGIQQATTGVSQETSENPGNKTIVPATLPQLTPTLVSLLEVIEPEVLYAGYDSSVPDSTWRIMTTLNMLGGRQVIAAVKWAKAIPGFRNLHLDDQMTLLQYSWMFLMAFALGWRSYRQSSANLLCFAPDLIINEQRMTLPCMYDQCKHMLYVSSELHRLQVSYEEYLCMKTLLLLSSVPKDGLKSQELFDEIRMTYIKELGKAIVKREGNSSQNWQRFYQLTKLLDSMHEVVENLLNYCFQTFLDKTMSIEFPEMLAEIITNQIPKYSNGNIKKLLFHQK

Cavia porcellus = species on record: Cavia porcellus; assay: Toxicity against guinea pig by monophasic action potential assay; format: organism-based; conditions: in vivo
[30] = Plasma clearance in dog at 1 to 3 mg/kg; format: ADME, organism-based, Canis lupus familiaris; parameters: dose 1-3 mg/kg
[31] = biological target: 11-beta-hydroxysteroid dehydrogenase 1 (Mus musculus, UniProt P50172); assay: Inhibition of N-terminal His6-tagged full length mouse 11betaHSD1 expressed in baculovirus infected cells using cortisone as substrate after 25 mins by HTRF assay
Chain of 11-beta-hydroxysteroid dehydrogenase 1 (Mus musculus, UniProt P50172) (P50172 whole entry): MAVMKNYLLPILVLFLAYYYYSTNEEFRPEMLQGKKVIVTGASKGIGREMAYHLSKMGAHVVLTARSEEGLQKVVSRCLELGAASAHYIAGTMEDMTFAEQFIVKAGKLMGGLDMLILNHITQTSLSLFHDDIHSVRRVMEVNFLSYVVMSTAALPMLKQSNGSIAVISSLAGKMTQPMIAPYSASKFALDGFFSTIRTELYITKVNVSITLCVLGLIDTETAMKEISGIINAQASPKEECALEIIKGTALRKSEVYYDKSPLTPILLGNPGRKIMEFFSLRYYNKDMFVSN

[32] = biological target: Mineralocorticoid receptor (Homo sapiens) (UniProt P08235); assay: Activity at mineralocorticoid receptor
Chain of Mineralocorticoid receptor (Homo sapiens) (P08235 whole entry): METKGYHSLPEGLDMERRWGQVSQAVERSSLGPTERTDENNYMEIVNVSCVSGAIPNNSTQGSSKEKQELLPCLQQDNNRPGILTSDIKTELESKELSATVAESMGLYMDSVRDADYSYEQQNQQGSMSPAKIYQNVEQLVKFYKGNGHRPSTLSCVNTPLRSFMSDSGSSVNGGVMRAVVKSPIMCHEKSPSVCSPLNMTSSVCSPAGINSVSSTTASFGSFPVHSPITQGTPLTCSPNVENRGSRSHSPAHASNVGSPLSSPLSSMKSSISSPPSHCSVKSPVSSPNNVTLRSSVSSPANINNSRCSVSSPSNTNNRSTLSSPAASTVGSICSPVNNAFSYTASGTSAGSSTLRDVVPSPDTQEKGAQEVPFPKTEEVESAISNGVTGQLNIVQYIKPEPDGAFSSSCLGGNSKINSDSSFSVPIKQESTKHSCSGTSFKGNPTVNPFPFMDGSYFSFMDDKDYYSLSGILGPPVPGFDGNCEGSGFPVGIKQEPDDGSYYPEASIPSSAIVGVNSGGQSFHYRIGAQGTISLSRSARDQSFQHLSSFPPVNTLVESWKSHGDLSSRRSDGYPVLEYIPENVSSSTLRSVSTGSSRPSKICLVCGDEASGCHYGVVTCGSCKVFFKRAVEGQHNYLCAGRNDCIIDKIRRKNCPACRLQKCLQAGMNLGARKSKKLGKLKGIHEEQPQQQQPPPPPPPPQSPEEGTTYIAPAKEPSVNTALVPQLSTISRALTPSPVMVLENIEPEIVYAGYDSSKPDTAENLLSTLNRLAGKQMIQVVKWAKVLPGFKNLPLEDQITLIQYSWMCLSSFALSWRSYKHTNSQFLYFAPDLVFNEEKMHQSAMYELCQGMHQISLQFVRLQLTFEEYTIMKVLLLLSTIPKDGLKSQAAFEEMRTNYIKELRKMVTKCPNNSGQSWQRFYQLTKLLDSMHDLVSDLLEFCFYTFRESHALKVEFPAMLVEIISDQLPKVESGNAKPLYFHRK

[33] = Half life in mouse at 1 to 3 mg/kg, po; format: ADME, organism-based; parameters: dose 1-3 mg/kg, route oral; conditions: in vivo
[34] = biological target: Type-2 angiotensin II receptor (Homo sapiens) (UniProt P50052); assay: Activity at AT2 receptor
Chain of Type-2 angiotensin II receptor (Homo sapiens) (P50052 whole entry): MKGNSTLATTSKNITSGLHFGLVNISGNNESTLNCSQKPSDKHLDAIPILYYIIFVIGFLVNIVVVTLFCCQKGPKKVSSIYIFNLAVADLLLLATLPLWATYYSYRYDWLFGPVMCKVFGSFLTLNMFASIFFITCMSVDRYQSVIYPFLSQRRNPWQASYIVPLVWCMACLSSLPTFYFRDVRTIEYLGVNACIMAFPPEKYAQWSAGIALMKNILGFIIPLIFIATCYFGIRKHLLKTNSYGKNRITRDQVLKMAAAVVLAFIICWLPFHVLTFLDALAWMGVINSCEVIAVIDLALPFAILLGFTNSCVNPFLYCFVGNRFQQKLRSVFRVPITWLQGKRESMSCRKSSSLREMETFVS

[35] = biological target: 17-beta-hydroxysteroid dehydrogenase type 1 (Homo sapiens, UniProt P14061); assay: Inhibition of recombinant 17betaHSD1 using [3H]estrone as substrate after 20 mins by flow scintillation analysis
Chain of 17-beta-hydroxysteroid dehydrogenase type 1 (P14061 whole entry): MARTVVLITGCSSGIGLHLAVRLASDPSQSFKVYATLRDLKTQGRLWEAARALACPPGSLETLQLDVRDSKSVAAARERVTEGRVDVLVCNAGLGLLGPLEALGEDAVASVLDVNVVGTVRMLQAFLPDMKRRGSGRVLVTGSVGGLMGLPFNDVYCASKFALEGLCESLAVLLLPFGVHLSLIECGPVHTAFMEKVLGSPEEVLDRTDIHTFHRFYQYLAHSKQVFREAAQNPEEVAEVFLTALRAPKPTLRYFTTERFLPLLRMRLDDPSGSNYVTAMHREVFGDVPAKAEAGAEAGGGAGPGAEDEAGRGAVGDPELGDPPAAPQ

[36] = Inhibition of N-terminal His6-tagged full length cynomolgus monkey 11betaHSD1 expressed in baculovirus infected cells using cortisone as substrate after 25 mins by HTRF assay; parameters: species or system Macaca fascicularis
[37] = Fraction unbound in rat plasma after 18 to 19 hrs by equilibrium dialysis; format: ADME, cell-free
CYP2C19 = CYP2C19 (Homo sapiens, UniProt P33261); assay: Inhibition of CYP2C19 at 10 uM; format: ADME
Chain of CYP2C19 (P33261 whole entry): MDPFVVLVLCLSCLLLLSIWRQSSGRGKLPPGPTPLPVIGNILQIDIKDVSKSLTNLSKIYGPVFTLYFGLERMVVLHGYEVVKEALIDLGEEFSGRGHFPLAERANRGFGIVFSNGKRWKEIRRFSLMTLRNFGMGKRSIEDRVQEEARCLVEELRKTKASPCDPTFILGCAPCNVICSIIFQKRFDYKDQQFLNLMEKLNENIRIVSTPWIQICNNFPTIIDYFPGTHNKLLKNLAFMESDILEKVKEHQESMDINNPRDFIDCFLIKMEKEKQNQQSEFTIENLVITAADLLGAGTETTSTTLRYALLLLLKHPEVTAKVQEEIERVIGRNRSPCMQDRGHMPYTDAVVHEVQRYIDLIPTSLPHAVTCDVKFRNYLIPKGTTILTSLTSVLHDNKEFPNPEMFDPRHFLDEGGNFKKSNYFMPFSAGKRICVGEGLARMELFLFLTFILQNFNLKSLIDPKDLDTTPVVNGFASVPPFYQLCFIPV

[38] = Intrinsic clearance in rat hepatocytes assessed per 10^6 cells
[39] = Volume of distribution at steady state in mouse at 1 to 3 mg/kg; format: ADME, organism-based; parameters: dose 1-3 mg/kg; conditions: in vivo, read-out: Vdss
in vivo = conditions: rat
[40] = Apparent permeability from basal to apical side of MDCK cells at 10 uM; format: ADME, cell-based, Canis lupus familiaris; conditions: dog
[41] = Oral bioavailability in rat; format: ADME, organism-based; conditions: in vivo
[42] = Fraction unbound in human plasma after 18 to 19 hrs by equilibrium dialysis; format: ADME, cell-free
[43] = Oral bioavailability in dog at 1 to 3 mg/kg; format: ADME, organism-based, Canis lupus familiaris; conditions: in vivo
[44] = Aqueous solubility of the compound after 24 hrs by LC-UV analysis at pH 7.4; format: physicochemical; conditions: aqueous medium
[45] = Half life in dog at 1 to 3 mg/kg, po; format: ADME, organism-based, Canis lupus familiaris; parameters: dose 1-3 mg/kg, route oral; conditions: in vivo

Chain of 11-beta-hydroxysteroid dehydrogenase type 2 (P80365 whole entry): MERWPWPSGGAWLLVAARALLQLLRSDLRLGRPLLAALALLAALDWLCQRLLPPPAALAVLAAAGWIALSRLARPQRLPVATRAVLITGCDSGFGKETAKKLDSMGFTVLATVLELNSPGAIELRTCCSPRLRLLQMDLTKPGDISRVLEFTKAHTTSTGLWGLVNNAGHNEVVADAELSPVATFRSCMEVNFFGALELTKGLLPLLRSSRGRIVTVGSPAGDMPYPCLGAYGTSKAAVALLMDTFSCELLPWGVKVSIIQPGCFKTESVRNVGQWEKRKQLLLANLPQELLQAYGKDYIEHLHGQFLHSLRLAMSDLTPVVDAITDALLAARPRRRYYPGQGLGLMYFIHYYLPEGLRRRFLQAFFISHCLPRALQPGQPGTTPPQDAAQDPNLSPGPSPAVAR

Compound: CCCSc1nc(N2CCC[C@@H](CC(=O)O)C2)ccc1C(=O)NC1CCCCC1 [AZD-4017]
- IC50 [1]: > 30 µM
- half-life [2]: 4.4 h
- IC50 [3]: 3.77 µM
- half-life [4]: 4.7 h
- IC50 [5]: 4.06 µM
- fraction unbound [6]: 0.023
- inhibition at 10 µM (CYP1A2): < 25%
- Drug uptake (Liver [7]): Not Active
- inhibition at 10 µM (CYP2D6): < 25%
- logD at 0.5 h [8]: 2.2
- Drug uptake (Plasma): Not Active
- Activity (Salmonella typhimurium): Non-toxic
- Papp A→B at 10 µM [9]: 290 nm/s
- Stability (Hepatocyte [10]): 66%
- inhibition (Mus musculus [11]): Dose-dependent effect
- Activity (L5178Y): Non-toxic
- Vd [12]: 2.6 L/kg
- Drug uptake (Liver [13]): < 25 pmol
- Vd [14]: 0.9 L/kg
- fraction unbound [15]: 0.029
- IC50 [16]: > 30 µM
- half-life [17]: 6.2 h
- Stability [18]: 34%
- inhibition at 10 µM (CYP3A4): < 25%
- inhibition at 10 µM (CYP2C9): < 25%
- clearance [19]: 0.96 L/h/kg
- half-life [20]: 4.2 h
- Imax (Mus musculus [21]): 70%
- bioavailability [22]: > 100%
- inhibition in vivo at 50 mg/kg (Mus musculus [23]): 50%
- Stability (Hepatocyte [24]): 93%
- bioavailability [25]: > 100%
- Activity [26]: Non-toxic
- Activity [27]: Active
- clearance [28]: 0.54 L/h/kg
- Activity [29]: inactive
- Activity (Cavia porcellus): Non-toxic
- clearance [30]: 0.42 L/h/kg
- IC50 [31]: 0.75 µM
- Activity [32]: inactive
- half-life [33]: 3.2 h
- Activity [34]: Active
- IC50 [35]: > 30 µM
- IC50 [36]: 0.029 µM
- fraction unbound [37]: 0.017
- inhibition at 10 µM (CYP2C19): < 25%
- hepatocyte CLint [38]: < 2 µL/min/1e6 cells
- Vd [39]: 4.2 L/kg
- clearance (in vivo): 0.54 L/h/kg
- Papp B→A at 10 µM [40]: 220 nm/s
- bioavailability [41]: > 100%
- fraction unbound [42]: 0.008
- bioavailability [43]: 60%
- solubility at 24 h [44]: 144 µM (≈ 60.4 µg/mL)
- half-life [45]: 4.9 h

Source: ChEMBL document CHEMBL2151015, “Discovery of a potent, selective, and orally bioavailable acidic 11β-hydroxysteroid dehydrogenase type 1 (11β-HSD1) inhibitor: discovery of 2-[(3S)-1-[5-(cyclohexylcarbamoyl)-6-propylsulfanylpyridin-2-yl]-3-piperidyl]acetic acid (AZD4017)” (J Med Chem, 2012)
